The subject of assay [1] is Eleven human cancer cell lines. The experiment in a line: MTT colorimetric assay, across the eleven human cancer cell lines. In kind it is cell-based. The conditions noted are these: mean ± SEM over the 11 human cancer cell lines, MTT, 72 hours; read-out: In Vitro IC50 Growth Inhibitory Values, m ± SEM. An excerpt: (§1) The amount of formazan obtained at the end of the experiment, measured by means of a spectrophotometer, is directly proportional to the number of living cells. Optical density determination thus enabled a quantitative measurement of the effect of the investigated compounds as compared to the control condition (untreated cells) and/or to other reference compounds. Eleven human cancer cell lines and one mouse melanoma cell-line (B16F10) described in Table 2 were used in the following MTT tests. These cancer cell lines cover seven histological cancer types including prostate (PC3), glioma (Hs683, T98G, U373, melanoma (VM21, VM28), non-small-cell-lung (A549), breast (MCF-7), colon (LoVo) and oesophageal (OE21, OE33) cancers. […] Each cell line was seeded in its appropriate culture medium. The detailed experimental procedure was the following: after a 24-hour period of incubation at 37° C., the culture medium was replaced by 100 μl of fresh medium in which the tested compound was previously dissolved, at the following molar concentrations: 10^-8 […] and 10^-4 M. Each experiment was performed in sestuplicates (6 times). After 72 hours of incubation at 37° C. with (experimental conditions) or without (control condition) the compound to be tested, the medium was replaced by 100 μl MTT dissolved in RPMI (1640 without phenol red) at a concentration of 0.5 or 1 mg/ml. The micro-wells were subsequently incubated during 3 hours and a half at 37° C. and centrifuged at 1300 rpm during 10 minutes. MTT was removed and formazan crystals formed were dissolved in 100 μl DMSO. The micro-wells were shaken for 5 minutes and read on a spectrophotometer at wavelengths of 570 nm (maximal formazan absorbance). For each experimental condition, the mean optical density was calculated, allowing the determination of the percentage of remaining living cells in comparison to the control. […] The origin of all the cell lines we used, along with their biological characteristics, and the validation procedures of the MTT colorimetric assay as employed here are fully detailed in Van Quaquebeke et al., 2005, J Med Chem 48:849-856; […]
In general terms: Tetrazolium assays rely on reduction of a dye to a coloured formazan, in cell work by metabolically active cells.

Assay [2] deals with VM21 melanoma cells. The experiment in a line: MTT colorimetric assay, overall cell growth, VM21. The conditions noted are these: MTT, 72 hours of incubation, read-out: In Vitro IC50 Growth Inhibitory Values, VM21. The format is cell-based, human.
Description: as §1

In assay [3] the test system is VM48 melanoma cells. The experiment in a line: MTT colorimetric assay, overall cell growth, VM48. The format is cell-based, human. As to conditions: MTT, 72 hours of incubation, read-out: In Vitro IC50 Growth Inhibitory Values, VM48.
In assay [4] the test system is OE33 oesophageal cancer cells. The experiment in a line: MTT colorimetric assay, overall cell growth, OE33. The format is cell-based, human. The conditions noted are these: read-out: In Vitro IC50 Growth Inhibitory Values, OE33.
Description: as §1

In assay [5] the test system is A549 non-small-cell-lung cancer cells. The experiment in a line: MTT colorimetric assay, overall cell growth, A549. In kind it is cell-based, human. The conditions noted are these: read-out: In Vitro IC50 Growth Inhibitory Values, A549.
Description: as §1

In assay [6] the test system is OE21 oesophageal cancer cells. The experiment in a line: MTT colorimetric assay, overall cell growth, OE21. The format is cell-based, human. The conditions noted are these: read-out: In Vitro IC50 Growth Inhibitory Values, OE21.
Description: as §1

Assay [7] has as its system PC-3 prostate cancer cells. The experiment in a line: MTT colorimetric assay, overall cell growth, PC-3. As to conditions: 72 hours of incubation, read-out: In Vitro IC50 Growth Inhibitory Values, PC-3. In kind it is cell-based, human.
Description: as §1

The test system of assay [8] is LoVo colon cancer cells. The experiment in a line: MTT colorimetric assay, overall cell growth, LoVo. In kind it is cell-based, human. The conditions noted are these: 72 hours of incubation, read-out: In Vitro IC50 Growth Inhibitory Values, LoVo.
Description: as §1

The test system of assay [9] is MCF-7 breast cancer cells. The experiment in a line: MTT colorimetric assay, overall cell growth, MCF-7. In kind it is cell-based, human. The conditions noted are these: read-out: In Vitro IC50 Growth Inhibitory Values, MCF-7.
Description: as §1

Assay [10] has as its system B16F10 melanoma cell-line. The experiment in a line: MTT colorimetric assay, overall cell growth, B16F10. In kind it is cell-based, mouse. As to conditions: read-out: In Vitro IC50 Growth Inhibitory Values, B16F10.
Description: as §1

Assay [11] deals with T98G glioma cells. The experiment in a line: MTT colorimetric assay, overall cell growth, T98G. The conditions noted are these: 72 hours of incubation, read-out: In Vitro IC50 Growth Inhibitory Values, T98G. In kind it is cell-based, human.
Description: as §1

The test system of assay [12] is Hs683 glioma cells. The experiment in a line: MTT colorimetric assay, overall cell growth, Hs683. The format is cell-based, human. As to conditions: read-out: In Vitro IC50 Growth Inhibitory Values, Hs683.
Description: as §1

Assay [13] relates to U373 glioblastoma cells. The experiment in a line: MTT colorimetric assay, overall cell growth, U373. In kind it is cell-based, human. The conditions noted are these: 72 hours of incubation, read-out: In Vitro IC50 Growth Inhibitory Values, U373.
Description: as §1

Molecules are shown by their SMILES. Like-named read-outs stand apart in the source and are kept apart here.

As a reminder, the IC50 is the concentration that gives 50% inhibition.

As to `COc1cc(C(=O)OCc2ccccc2COC(=O)c2ccc(O)c(OC)c2)ccc1O` [DLT24, [2-[(4-hydroxy-3-methoxy-benzoyl)oxymethyl]phenyl]methyl 4-hydroxy-3-methoxy-benzoate], the IC50 in [1] came out at 53 ± 2 µM; in assay [2] (Homo sapiens), 48 µM; in [3] (Homo sapiens), 58 µM.
The like results for `COc1cc(C(=O)OCc2cccc(COC(=O)c3ccc(O)c(OC)c3)c2)ccc1O` [DLT25, [3-[(4-hydroxy-3-methoxy-benzoyl)oxymethyl]phenyl]methyl 4-hydroxy-3-methoxy-benzoate] were, in that order, 52 ± 5 µM, 81 µM and 51 µM.
As to `COc1cc(C(=O)O[C@H]2CCCCC[C@@H]2OC(=O)c2ccc(O)c(OC)c2)ccc1O` (relative stereo) [DLT22, S,S-trans-cycloheptane-1,2-diyl bis-(4-hydroxy-3-methoxybenzoate)], the IC50 in assay [4] (72 hours of incubation) is 55 µM; in [5] (72 hours of incubation) it was 46 µM; in assay [6] (72 hours of incubation) it was 49 µM; in [7], 88 µM; in [1], 52 µM; in [8], 44 µM. Moreover, the 50% inhibitory concentration (IC50) is 69 µM in assay [9] (72 hours of incubation); 10 µM in [10] (72 hours of incubation); 24 µM in [11]; 51 µM in assay [2]; 50 µM in [3]; 44 µM in assay [12] (72 hours of incubation). The IC50 in assay [13] came out at 54 µM.
Regarding `COc1cc(C(=O)NCCCNC(=O)c2ccc(O)c(OC)c2)ccc1O` [DLT36, N,N′-Propane-1,3-diyl bis-(4-hydroxy-3-methoxybenzamide)], the 50% inhibitory concentration (IC50) in [4] (72 hours of incubation) came out at 36 µM; in assay [5] (72 hours of incubation) it was 26 µM; in [6] (72 hours of incubation), 28 µM; in assay [7] it was 40 µM; in assay [1], 35 ± 2 µM; in [8] it was 32 µM. Further, the IC50 in assay [9] (72 hours of incubation) amounted to 25 µM; in assay [10] (72 hours of incubation), 38 µM; in assay [11] it was 40 µM; in assay [2] it was 49 µM; in assay [3] it was 43 µM; in [12] (72 hours of incubation) it was 31 µM. For the same molecule, the IC50 in assay [13] amounted to 38 µM.
For the molecule `COc1cc(C(=O)OCC#CCOC(=O)c2ccc(O)c(OC)c2)ccc1O` [DLT28, 1,4-oxybut-2-ynyl bis(4-hydroxy-3-methoxybenzoate)], the IC50 in assay [1] was 50 ± 4 µM; in assay [2] (Homo sapiens) it was 42 µM; in assay [3] (Homo sapiens), 60 µM.
Consider `COc1cc(C(=O)OC/C=C/COC(=O)c2ccc(O)c(OC)c2)ccc1O` [DLT27, 1,4-oxybut-2-enyl-bis(4-hydroxy-3-methoxybenzoate)], for which the IC50 in assay [7] (Homo sapiens), in assay [1], in [2] (Homo sapiens) and in assay [3] (Homo sapiens) was more than 100 µM each time.
With `COc1ccc(C(=O)OCCCCCCOC(=O)c2ccc(OC)c(OC)c2)cc1OC` [DLT26, 6-(3,4-dimethoxybenzoyl)oxyhexyl 3,4-dimethoxybenzoate], the IC50 in [1], in [2] (Homo sapiens) and in assay [3] (Homo sapiens) was more than 100 µM each time.
Consider `O=C(O[C@@H]1CCCC[C@H]1OC(=O)c1cc(O)c(O)c(O)c1)c1cc(O)c(O)c(O)c1` (stereo in doubt) [DLT34, R,R-trans-cyclohexane 1,2-diyl bis-(3,4,5-trihydroxybenzoate)], for which the IC50 in assay [4] (72 hours of incubation) was 45 µM; in assay [5] (72 hours of incubation) it was 32 µM; in [6] (72 hours of incubation), 37 µM; in [7], 68 µM; in assay [1] it was 41 µM; in [8] it was 34 µM. The IC50 in [9] (72 hours of incubation) was determined as 28 µM; in assay [10] (72 hours of incubation), 0.3 µM; in assay [11], 31 µM; in assay [2], 91 µM; in assay [3], 28 µM; in assay [12] (72 hours of incubation), 24 µM. Besides, the IC50 in assay [13] turned out to be 37 µM.
In the case of `COc1cc(C(=O)O[C@@H]2CC[C@@H](OC(=O)c3ccc(O)c(OC)c3)C2)ccc1O` (stereo in doubt) [DLT19, R,R-trans-cyclopentane-1,3-diyl bis-(4-hydroxy-3-methoxybenzoate)], the IC50 in [4] (72 hours of incubation) amounted to 36 µM; in assay [5] (72 hours of incubation), 32 µM; in assay [6] (72 hours of incubation), 34 µM; in assay [7], 42 µM; in [1], 34 µM; in assay [8] it was 18 µM. In addition, the IC50 in [9] (72 hours of incubation) was 25 µM; in assay [10] (72 hours of incubation), 26 µM; in [11], 31 µM; in assay [2], 37 µM; in assay [3], 53 µM; in assay [12] (72 hours of incubation) it was 30 µM. Moreover, in assay [13], the IC50 was 35 µM.
`COc1cc(C(=O)O[C@H]2CCC[C@@H]2OC(=O)c2ccc(O)c(OC)c2)ccc1O` (stereo in doubt) [DLT15, S,S-trans-cyclopentane-1,2-diyl bis-(4-hydroxy-3-methoxybenzoate)]: the concentration for half-maximal inhibition (IC50) came to 28 µM in [4] (72 hours of incubation); 30 µM in [5] (72 hours of incubation); 28 µM in [6] (72 hours of incubation); 26 µM in [7]; 28 µM in assay [1]; 28 µM in [8]. Also, the IC50 in assay [9] (72 hours of incubation) was 23 µM; in assay [10] (72 hours of incubation) it was 6 µM; in assay [11], 30 µM; in [2] it was 35 µM; in [3] it was 26 µM; in assay [12] (72 hours of incubation) it was 25 µM. Besides, the half-inhibitory concentration (IC50) in assay [13] turned out to be 30 µM.
For `COc1cc(C(=O)O[C@H]2CCC[C@H]2OC(=O)c2ccc(O)c(OC)c2)ccc1O` [DLT14, cis-cyclopentane-1,2-diyl bis-(4-hydroxy-3-methoxybenzoate)], the IC50 in assay [4] (Homo sapiens, OE33, 72 hours of incubation) was 28 µM; in [5] (Homo sapiens, A549, 72 hours of incubation) it was 24 µM; in [6] (Homo sapiens, OE21, 72 hours of incubation), 28 µM; in assay [7] (Homo sapiens), 36 µM; in assay [1], 29 µM; in [8] (Homo sapiens, LoVo), 24 µM. Also, the half-maximal inhibitory concentration (IC50) came to 27 µM in [9] (Homo sapiens, MCF7, 72 hours of incubation); 9 µM in assay [10] (Mus musculus, B16-F10, 72 hours of incubation); 32 µM in assay [11] (Homo sapiens, T98G); 33 µM in assay [2] (Homo sapiens); 22 µM in [3] (Homo sapiens); 27 µM in assay [12] (Homo sapiens, Hs 683, 72 hours of incubation). Moreover, the concentration for half-maximal inhibition (IC50) in [13] (Homo sapiens, U373 MG) was 36 µM.
`COc1ccc(C(=O)OCCCCCCOC(=O)c2ccc(OC)c(O)c2)cc1O` [DLT29, 6-(3-hydroxy-4-methoxy-benzoyl)oxyhexyl 3-hydroxy-4-methoxy-benzoate]: the figures for the IC50 in assay [1], in [2] (Homo sapiens) and in assay [3] (Homo sapiens) were more than 100 µM, 74 µM and 82 µM, respectively.
